Source: patent US20240409746A1, “AZO IRON COMPLEX DYE, INK COMPOSITION CONTAINING SAME, AND METHOD FOR PRODUCING AZO IRON COMPLEX DYE” (ORIENT CHEMICAL INDUSTRIES CO., LTD., priority 2021, published 2024)

Experiments:
Assay type in all cases: physicochemical
[1] = Visual observation of hue of 5% solution of the azo iron complex dye; settings: for Hue of 5% methyl ethyl ketone solution with azo iron complex dye: 5% in methyl ethyl ketone, visually observed
Description: A solution of the azo iron complex dye A-1 in methyl ethyl ketone was prepared at a concentration of 10 mg/1000 ml (10 ppm). The absorbance of this solution was measured using an ultraviolet-visible spectrophotometer (available from Shimadzu Corporation; trade name UV-1700).
(§1) Then the azo iron complex dyes solutions were filtered through a membrane filter (pore size 1 μm, PTFE) under reduced pressure, and the maximum concentrations of the azo iron complex dyes were defined as the concentrations at which it was confirmed that there were no insoluble substances on the membrane filter. Then the hue of the methyl ethyl ketone solution with the azo iron complex dyes concentrations of 5% was visually observed.

[2] = Solubility evaluation (maximum concentration with no insoluble substances on the membrane filter); settings: for Maximum concentration (%) Ethanol / Maximum concentration (%) Methyl ethyl ketone: tested at 5%, 10%, 15% and 20%, ultrasonically dispersed 10 minutes, 1 μm PTFE membrane filter
Source text: as §1

[3] = Electrical conductivity measurement; settings: 6% solution in methyl ethyl ketone
Source text: The azo iron complex dye of the present invention can be suitably used in the ink composition for a CIJ printer. Herein, the electrical conductivity K of the azo iron complex dye is preferably 300-2200 μS/cm, and more preferably 600-2000 μS/cm. As long as the electrical conductivity is within this range, the charge of the ink composition for a CIJ printer containing the azo iron complex dye can be stably and freely controlled, so that the ejection stability of the ink composition can be improved. Note that the electrical conductivity K is measured by inserting and immersing an electrode of an electrical conductivity meter in a 6 mass % methyl ethyl ketone solution of the azo iron complex dye.
A 6% solution of the azo iron complex dye A-1 in methyl ethyl ketone was prepared and measured using an electrical conductivity meter (available from Eutech Instruments Pte, Ltd.; trade name CyberScan CON100). As a result, the electrical conductivity K was 1530 μS/cm. Furthermore, a 6% solution of the azo iron complex dye A-1 in methyl ethyl ketone was prepared and measured using a conductivity meter (available from Knick Co., Ltd.; trade name Conducell 4USF-PG120). As a result, the electrical conductivity K was […].

[4] = Dissolution stability of dye solution on standing

SMILES	Hue of 5% methyl ethyl ketone solution with azo iron complex dye [1]	Color of solution adjusted to a concentration of 5% [1]	Maximum concentration (%) Ethanol [2] [%]	Solubility in both methyl ethyl ketone and ethanol (in words) [2]	Maximum concentration (%) Methyl ethyl ketone [2] [%]	Electrical conductivity K ([3]; CyberScan CON100) [μS/cm]	Electrical conductivity K immediately after dissolution ([3]; immediately after dissolution) [μS/cm]	Dissolution stability, left overnight ([4]; 5% solution, left overnight (8 hours))	Dissolution stability in ethanol ([4]; ethanol solution allowed to stand for 10 minutes)
O=[N+]([O-])c1ccc2c(c1)[O][Fe]1([O]c3cc([N+](=O)[O-])ccc3N=Nc3c(ccc4ccccc34)[O]1)[O]c1ccc3ccccc3c1N=N2 (centres unmarked) [B-1]	reddish brown hue	dark brown color	5	good solubility	10	1450			
CCCCN(CCCC)c1ccc2c(c1)[O][Fe]1([O]c3cc(N(CCCC)CCCC)ccc3N=Nc3cc(C)c(N=Nc4ccc(C#N)cc4)cc3[O]1)[O]c1cc(N=Nc3ccc(C#N)cc3)c(C)cc1N=N2 (centres unmarked) [B-2]	black color within a practical range	sufficient black color	<5	low solubility	5		165	precipitation was observed	precipitate was confirmed
